Measurements from patent USRE37886E1, “1-(1,2-Disubstituted piperidinyl)-4-substituted piperazine derivatives” (Janssen Pharmaceuticals, N.V., priority 1995, dated 2002).

Legend:
[1] = system: substance-P induced relaxation of the pig coronary arteries; assay: Antagonism of substance-P induced relaxation of the pig coronary arteries; type: cell-based; conditions: concentration at which 50% of the response to 10^−9 M substance P was inhibited, 30 minutes incubation, prostaglandin F2a precontracted segments
Excerpt: (§1) The compounds of the present invention are potent inhibitors of neurokinin-mediated effects, in particular those mediated via the NK1 receptor, and may therefore be described as tachykinin antagonists, especially as substance P antagonists, as indicated in vitro by the antagonism of substance P induced relaxation of pig coronary arteries which is described hereinafter. The binding affinity of the present compounds for the human, guinea-pig and gerbil neurokinin receptors may be determined in vitro in a receptor binding test using ^3H-substance-P as radioligand. The subject compounds also show substance-P antagonistic activity in vivo as may be evidenced by, for instance, the antagonism of substance P-induced plasma extravasation in guinea-pigs, or the antagonism of drug-induced emesis in ferrets (Watson et al., Br. J. Pharmacol. 115, 84-94, 1995).
Antagonism of substance-P induced relaxation of the pig coronary arteries
Segments of coronary artieries taken from pigs (killed by injection of an overdose of sodium pentobarbital) were inverted and mounted for recordign of isometric tension in organ baths (volume 20 ml) with the endothelium at the outside. The preparations were bathed in Krebs-Henseleit solution. The solution was kept at 37° C. and gassed with a mixture of O2/CO2 (95/5). After stabilisation of the preparations, prostaglandin F2a (10^−5 M) was administered to induce a contraction. This was repeated until contractivle responses became stable. Then prostaglandin F2a was again administered and substance P(3×10^−10 M and 10^−9 M cumulatively) was added. Substance P induced endothelium dependent relaxations. After washing away the agonists, a known concentratin of a compound of formula (I) was added. After an incubation period of 30 minutes, prostaglandin F2a ([…]) and the same concentrations of sbustance P as described above were again administered in the presence of the compound to be tested. Relaxations caused by substance P were expressed as relaxations under control conditions, and percent inhibition of the response to […] substance P was taken as a measure of the antagonistic activity of the compound to be tested. Table 6 lists the IC50 values (concentration at which 50% of the response to […] substance P was inhibited by the test compound) for the tested compounds.

[2] = system: substance P induced plasma extravasation; assay: Antagonism of substance P induced plasma extravasation in guinea-pigs; type: in vivo; conditions: lowest active dose, female guinea-pigs; for LAD nose: compound 1 hour prior to substance P (2 mg/kg, femoral artery), blue colouring of nose 10 minutes after challenge; for LAD conjunctiva / LAD forepaws / LAD trachea / LAD urinary bladder: compound 1 hour prior to substance P; for LAD conjunctiva: blue colouring of conjunctiva 10 minutes after challenge; for LAD forepaws: blue colouring of forepaws 10 minutes after challenge; for LAD trachea: blue colouring of trachea 30 minutes after challenge; for LAD urinary bladder: blue colouring of urinary bladder 30 minutes after challenge
Excerpt: as §1
Antagonism of substance P induced plasma extravasation in guinea-pigs
Plasma extravasation was induced by injection of substance P (2 mg/kg) in the femoral artery of female guinea-pigs. Evans Blue dye (30 mg/kg) was injected simultaneously. The test compound or solvent was administered 1 hour prior to substance P injection. 10 minutes after challenge, the aminals were checked for blue colouring (a direct measure for plasma extravasation) of the nose, the forepaws, and the conjectiva. 30 minutes after challenge, the animals were sacrificed by CO2 gas inhalation and checked for blue colouring of the trachea and the urinary bladder. […]

| IC50 ([1]; Sus scrofa, 0.5 h) [nM] | Compound | IC50 [1] [nM] | LAD nose [2] [mg/kg] | LAD conjunctiva [2] [mg/kg] | LAD forepaws [2] [mg/kg] | LAD trachea [2] [mg/kg] | LAD urinary bladder [2] [mg/kg] |
| --- | --- | --- | --- | --- | --- | --- | --- |
|  | Cc1cccc(C)c1NC(=O)CN1CCN(C2CCN(C(=O)c3cc(C(F)(F)F)cc(C(F)(F)F)c3)C(Cc3ccc(F)c(F)c3)C2)CC1 (racemic) [Compound 134] | 0.04 | 10.0 | 10.0 | 10.0 | 10.0 | 10.0 |
|  | Cc1cc(C)cc(NC(=O)CN2CCN(C3CCN(C(=O)c4cc(C(F)(F)F)cc(C(F)(F)F)c4)C(Cc4ccccc4)C3)CC2)c1 (stereo not drawn) [Compound 50] | 2.43 | 10.0 | 10.0 | 10.0 | 10.0 | >40 |
|  | Cc1cccc(C)c1NC(=O)CN1CCN(C2CCN(C(=O)c3cc(C(F)(F)F)cc(C(F)(F)F)c3)C(Cc3ccc(C(F)(F)F)cc3)C2)CC1.O=C(O)/C=C/C(=O)O (single isomer, unassigned) [Compound 136] | 0.31 | 2.50 | 2.50 | 2.50 | 2.50 | 2.50 |
|  | Cc1cccc(C)c1NC(=O)CN1CCN(C2CCN(C(=O)c3cc(C(F)(F)F)cc(C(F)(F)F)c3)C(Cc3ccccc3)C2)CC1 (racemic) [Compound 59] | 1.2 | 2.50 | 2.50 | 2.50 | 5.00 | 5.00 |
|  | Cc1cccc(C)c1NC(=O)CN1CCN(C2CCN(C(=O)c3cc(C(F)(F)F)cc(C(F)(F)F)c3)C(Cc3ccc(C(F)(F)F)cc3)C2)CC1 (single isomer, unassigned) [Compound 137] | 0.23 | 2.50 | 2.50 | 2.50 | 2.50 | 2.50 |
|  | O=C(C(c1ccccc1)N1CCN(C2CCN(C(=O)c3cc(C(F)(F)F)cc(C(F)(F)F)c3)C(Cc3ccccc3)C2)CC1)N1CCCC1 (mixture of isomers) [Compound 46] | 0.42 | 0.63 | 0.63 | 0.63 | >40 | 0.63 |
|  | O=C(C(c1ccccc1)N1CCN(C2CCN(C(=O)c3cc(C(F)(F)F)cc(C(F)(F)F)c3)C(Cc3ccccc3)C2)CC1)N1CCCC1 (mixture of isomers) [Compound 52] | 1.1 | 0.63 | 2.50 | 0.63 | 10.0 | 10.0 |
|  | Cc1cc(C)cc(COC(CN2CCN(C3CCN(C(=O)c4cc(C(F)(F)F)cc(C(F)(F)F)c4)C(Cc4ccccc4)C3)CC2)c2ccccc2)c1 (racemic) [Compound 87] | 1.9 | 10.0 | 10.0 | 10.0 | 10.0 | >40 |
|  | COc1ccccc1N1CCN(C2CCN(C(=O)c3cc(C(F)(F)F)cc(C(F)(F)F)c3)C(Cc3ccccc3)C2)CC1 (racemic) [Compound 56] | 3.25 | 10.0 | 10.0 | 10.0 | 40.0 | 2.50 |
|  | Cc1cccc(C)c1NC(=O)C(c1ccccc1)N1CCN(C2CCN(C(=O)c3cc(C(F)(F)F)cc(C(F)(F)F)c3)C(Cc3ccccc3)C2)CC1 (racemic) [Compound 94] | 0.42 | 2.50 | 2.50 | 2.50 | 10.0 | 10.0 |
|  | O=C(CN1CCN(C2CCN(C(=O)c3cc(C(F)(F)F)cc(C(F)(F)F)c3)C(Cc3ccccc3)C2)CC1)NC1(c2ccccc2)CCCCC1 (stereo not drawn) [Compound 48] | 0.26 | 2.50 | 2.50 | 2.50 | 2.50 | 2.50 |
|  | Cc1ncc(Cn2c(N3CCN(C4CCN(C(=O)c5cc(C(F)(F)F)cc(C(F)(F)F)c5)C(Cc5ccccc5)C4)CC3)nc3ccccc32)o1 (stereo not drawn) [Compound 24] | 0.64 | 2.50 | 10.0 | 2.50 | 10.0 | >40 |
| 2.08 | Cc1cccc(C)c1NC(=O)CN1CCN([C@H]2CCN(C(=O)c3cc(C(F)(F)F)cc(C(F)(F)F)c3)[C@@H](Cc3cc(F)cc(F)c3)C2)CC1 (racemic) [Compound 132, (±)-cis-4-[1-[3,5-bis (trifluoromethyl)benzoyl]-2-[(3,5-difluorophenyl)methyl]-4-piperidinyl]-N-(2,6-dimethylphenyl)-1-piperazineacetamide] |  | 10.0 | 10.0 | 10.0 | 10.0 | 10.0 |
|  | Cc1cccc(C)c1NC(=O)CCN1CCN(C2CCN(C(=O)c3cc(C(F)(F)F)cc(C(F)(F)F)c3)C(Cc3ccccc3)C2)CC1 (racemic) [Compound 105] | 1.05 | 2.50 | 2.50 | 2.50 | >40 | >40 |
|  | O=C(CN1CCN(C2CCN(C(=O)c3cc(C(F)(F)F)cc(C(F)(F)F)c3)C(Cc3ccccc3)C2)CC1)NC1(c2ccccc2)CCCCC1 (stereo not drawn) [Compound 49] | 0.59 | 2.50 | 2.50 | 2.50 | 10.0 | >40 |
|  | Cc1cccc(C)c1NC(=O)CN1CCN([C@@H]2CCN(C(=O)c3cc(C(F)(F)F)cc(C(F)(F)F)c3)[C@@H](Cc3ccccc3)C2)CC1.O=C(O)C[C@H](O)C(=O)O (relative stereo) [Compound 95, (+)-(B)-trans-4-[1-[3,5-bis(trifluoromethyl)benzoyl]-2-(phenylmethyl)-4-piperidinyl]-N-(2,6-dimethylphenyl)-1-piperazine acetamide. (L)-malic acid (1:1)] | 0.1 | 0.31 | 0.31 | 0.31 | 0.63 | 2.50 |
|  | O=C(CN1CCN(C2CCN(C(=O)c3cc(C(F)(F)F)cc(C(F)(F)F)c3)C(Cc3ccccc3)C2)CC1)N1CCc2ccccc21 (racemic) [Compound 107] | 0.96 | 2.50 | 2.50 | 2.50 | 2.50 | 10.0 |
|  | O=C(CN1CCN(C2CCN(C(=O)c3cc(C(F)(F)F)cc(C(F)(F)F)c3)C(Cc3ccccc3)C2)CC1)N1CCCc2ccccc21 (racemic) [Compound 101] | 0.75 | 10.0 | 10.0 | 10.0 | >40 | >40 |
